# Article PMC12457078, “Inhibition of soluble epoxide hydrolase in endotoxin induced pig lung injury” (Frontiers in Pharmacology, 2025)
# Several values for one entry are separate records, joined by “and”; a condition that tells them apart may be missing. Identical values can stand only once.
# Tested on: sEH
# Assay: oxylipin analysis, epoxide/diol ratios (target engagement)
# Assay type: in vivo, pig
# Parameters: 14,15-DiHETE: unit not given beside the values; 12,13-DiHOME / 9,10-DiHODE / 11,12-DiHETrE / 14,15-DiHETrE / 10,11-DiHDPE / 19,20-DiHDPE / 13-HODE / 5-HETE / 11-HETE / 12-HETE / 5-HEPE / 9(10)-EpOME / 12(13)-EpOME / EKODE / 11(12)-EpETE: unit not given here
# Details: for 9,10,13-TriHOME sample concentration / 9,12,13-TriHOME sample concentration: bad chromatography; for 14,15-DiHETE: high blanks
# Procedure: All animals were monitored with pulse oximetry, heart rate, ECG, systemic arterial blood pressure (ABP), pulmonary arterial pressure (PAP), central venous pressure (CVP) temperature, tidal volumes, respiratory rate and end tidal carbon dioxide. At baseline, and at 3 h, 6 h and at the end of the experiment, pulmonary capillary wedge pressure (PCWP) was measured together with arterial and venous blood gas analyses, as well as cardiac output calculations. Routine chemistry, including creatinine, bilirubin, glucose, electrolytes were collected at baseline and at the end of the experiment (Vetscan VS2®, Abaxis, Griesheim, Germany). Blood samples for measurement of AEPU plasma concentrations, as well as oxylipins (i.e., EpETrEs and their DiHETrE corresponding diols as well as related compounds with other polyunsaturated fatty acid precursors), were collected at baseline, 6 h and at the end of the experiment.
# This meant nine subjects in each group to achieve 90% power of detecting a difference of this size given α = 0.05. Anticipating that not all experiments would reach completion, we used a sample size of 22. The results were analyzed using SPSS Statistics, version 24 (IBM Corp., Armonk, N.Y., United States). Normality was examined with the Shapiro-Wilk test, together with examination of histograms of data. Continuous variables were compared using Student’s t-test or Mann Whitney U test, as appropriate. Categorical variables were compared using Fischer’s exact test. Statistical significance was set at α < 0.05. Oxylipins with at least 80% of observations above limit of detection at both timepoints were included in pairwise comparisons of ratios and fold-change evaluations where observations below limit of detection (LOD) were substituted with 0.5 x LOD.
# [1] = Time (h) 0, single pigs of sEH-i group
# [2] = Time (h) 6, single pigs of sEH-i group
# [3] = animal 20, time 6, sample Schwein36
# [4] = animal 22, time 0, sample Schwein37
# [5] = animal 22, time 6, sample Schwein38
smiles,measurement,setting,value
CCOCCOCCOCCCCCNC(=O)NC12CC3CC(CC(C3)C1)C2 [sEH-i],5(6)-EpETrE sample concentration,[1],<LOD
same,"5,6-DiHETrE sample concentration",[1],<LOD
same,7(8)-EpDPE sample concentration,[1],<LOD
same,"7,8-DiHDPE sample concentration",[1],<LOD
same,8(9)-EpETE sample concentration,[1],<LOD
same,8(9)-EpETrE sample concentration,[1],<LOD
same,"8,9-DiHETE sample concentration",[1],<LOD
same,9-HETE sample concentration,[1],<LOD
same,9-oxo-ODE sample concentration,[1],<LOD
same,10(11)-EpDPE sample concentration,[1],<LOD
same,11(12)-EpETE sample concentration,[1],0.1209 pmol/mL and 0.141 pmol/mL and 0.08872 pmol/mL
same,13(14)-EpDPE sample concentration,[1],<LOD
same,14(15)-EpETE sample concentration,[1],<LOD
same,15-HEPE sample concentration,[1],<LOD
same,16(17)-EpDPE sample concentration,[1],<LOD
same,17(18)-EpETE sample concentration,[1],<LOD
same,17-HDoHE sample concentration,[1],<LOD
same,19(20)-EpDPE sample concentration,[1],<LOD
same,LTB4 sample concentration,[1],<LOD
same,PGD2 sample concentration,[1],<LOD
same,PGE2 sample concentration,[1],<LOD
same,PGF2a sample concentration,[1],<LOD
same,Resolvin D1 sample concentration,[1],<LOD
same,Resolvin D2 sample concentration,[1],<LOD
same,TXB2 sample concentration,[1],0.17 pmol/mL and 0.31 pmol/mL
same,"9,10,13-TriHOME sample concentration",[1],4.78 pmol/mL and 2.75 pmol/mL and 3.27 pmol/mL
same,"9,12,13-TriHOME sample concentration",[1],<LOD
same,5(6)-EpETrE sample concentration,[2],<LOD
same,7(8)-EpDPE sample concentration,[2],<LOD
same,"7,8-DiHDPE sample concentration",[2],<LOD
same,8(9)-EpETE sample concentration,[2],<LOD
same,8(9)-EpETrE sample concentration,[2],<LOD
same,9-HETE sample concentration,[2],<LOD
same,9-oxo-ODE sample concentration,[2],<LOD
same,10(11)-EpDPE sample concentration,[2],<LOD
same,11(12)-EpETE sample concentration,[2],0.1453 pmol/mL and 0.09993 pmol/mL and 0.1012 pmol/mL
same,13(14)-EpDPE sample concentration,[2],<LOD
same,14(15)-EpETE sample concentration,[2],<LOD
same,15-HEPE sample concentration,[2],<LOD
same,16(17)-EpDPE sample concentration,[2],<LOD
same,17(18)-EpETE sample concentration,[2],<LOD
same,19(20)-EpDPE sample concentration,[2],<LOD
same,LTB4 sample concentration,[2],<LOD
same,PGD2 sample concentration,[2],<LOD
same,PGE2 sample concentration,[2],<LOD
same,Resolvin D1 sample concentration,[2],<LOD
same,Resolvin D2 sample concentration,[2],<LOD
same,TXB2 sample concentration,[2],1.20 pmol/mL and 2.15 pmol/mL and 2.09 pmol/mL
same,"9,10,13-TriHOME sample concentration",[2],4.27 pmol/mL and 3.59 pmol/mL and 2.73 pmol/mL
same,"9,12,13-TriHOME sample concentration",[2],<LOD
same,5(6)-EpETrE,[3],<LOD
same,"5,6-DiHETrE",[3],<LOD
same,5-HEPE,[3],<LOD
same,5-HETE,[3],<LOD
same,5-oxo-ETE,[3],0.05
same,7(8)-EpDPE,[3],<LOD
same,"7,8-DiHDPE",[3],<LOD
same,8(9)-EpETE,[3],<LOD
same,8(9)-EpETrE,[3],<LOD
same,"8,9-DiHETE",[3],<LOD
same,"8,9-DiHETrE",[3],0.0443
same,8-HETE,[3],0.0319
same,9(10)-EpODE,[3],<LOD
same,9(10)-EpOME,[3],0.34
same,"9,10,13-TriHOME",[3],6.77
same,"9,10-DiHODE",[3],0.0155
same,"9,10-DiHOME",[3],0.21
same,"9,12,13-TriHOME",[3],<LOD
same,9-HETE,[3],<LOD
same,9-HODE,[3],1.17
same,9-HOTrE,[3],0.2865
same,9-oxo-ODE,[3],<LOD
same,10(11)-EpDPE,[3],<LOD
same,"10,11-DiHDPE",[3],<LOD
same,11(12)-EpETE,[3],0.0834
same,11(12)-EpETrE,[3],0.0219
same,"11,12-DiHETE",[3],0.0228
same,"11,12-DiHETrE",[3],0.45
same,11-HETE,[3],0.12
same,12(13)-EpODE,[3],<LOD
same,12(13)-EpOME,[3],0.3027
same,"12,13-DiHODE",[3],<LOD
same,"12,13-DiHOME",[3],0.26
same,12-HEPE,[3],0.0122
same,12-HETE,[3],0.06381
same,12-oxo-ETE,[3],<LOD
same,13(14)-EpDPE,[3],<LOD
same,"13,14-DiHDPE",[3],0.04
same,13-HODE,[3],4.33
same,13-HOTrE,[3],<LOD
same,13-oxo-ODE,[3],<LOD
same,14(15)-EpETE,[3],<LOD
same,14(15)-EpETrE,[3],<LOD
same,"14,15-DiHETrE",[3],0.58
same,15(16)-EpODE,[3],0.25
same,"15,16-DiHODE",[3],2.37
same,15-HEPE,[3],<LOD
same,15-HETE,[3],0.23
same,15-HETrE,[3],0.10
same,15-oxo-ETE,[3],0.0224
same,16(17)-EpDPE,[3],<LOD
same,"16,17-DiHDPE",[3],0.0373
same,17(18)-EpETE,[3],<LOD
same,"17,18-DiHETE",[3],0.77
same,17-HDoHE,[3],<LOD
same,19(20)-EpDPE,[3],<LOD
same,"19,20-DiHDPE",[3],0.44
same,20-HETE,[3],0.0531
same,EKODE,[3],0.20
same,LTB4,[3],0.26
same,PGD2,[3],<LOD
same,PGE2,[3],<LOD
same,PGF2a,[3],0.69
same,Resolvin D1,[3],<LOD
same,Resolvin D2,[3],<LOD
same,TXB2,[3],2.57
same,"14,15-DiHETE",[3],0.2599
same,5(6)-EpETrE,[4],<LOD
same,"5,6-DiHETrE",[4],<LOD
same,5-HEPE,[4],0.21
same,5-HETE,[4],0.81
same,5-oxo-ETE,[4],0.30
same,7(8)-EpDPE,[4],<LOD
same,"7,8-DiHDPE",[4],<LOD
same,8(9)-EpETE,[4],<LOD
same,8(9)-EpETrE,[4],<LOD
same,"8,9-DiHETE",[4],0.0568
same,"8,9-DiHETrE",[4],0.11
same,8-HETE,[4],0.16
same,9(10)-EpODE,[4],0.39
same,9(10)-EpOME,[4],1.58
same,"9,10,13-TriHOME",[4],8.76
same,"9,10-DiHODE",[4],0.80
same,"9,10-DiHOME",[4],5.53
same,"9,12,13-TriHOME",[4],1.91
same,9-HETE,[4],<LOD
same,9-HODE,[4],22.28
same,9-HOTrE,[4],2.15
same,9-oxo-ODE,[4],<LOD
same,10(11)-EpDPE,[4],<LOD
same,"10,11-DiHDPE",[4],0.12
same,11(12)-EpETE,[4],0.09412
same,11(12)-EpETrE,[4],0.09
same,"11,12-DiHETE",[4],0.09
same,"11,12-DiHETrE",[4],1.52
same,11-HETE,[4],0.33
same,12(13)-EpODE,[4],0.93
same,12(13)-EpOME,[4],3.18
same,"12,13-DiHODE",[4],1.66
same,"12,13-DiHOME",[4],19.80
same,12-HEPE,[4],0.0755
same,12-HETE,[4],0.69
same,12-oxo-ETE,[4],4.85
same,13(14)-EpDPE,[4],<LOD
same,"13,14-DiHDPE",[4],0.22
same,13-HODE,[4],80.31
same,13-HOTrE,[4],4.84
same,13-oxo-ODE,[4],6.02
same,14(15)-EpETE,[4],<LOD
same,14(15)-EpETrE,[4],0.11
same,"14,15-DiHETrE",[4],3.44
same,15(16)-EpODE,[4],36.18
same,"15,16-DiHODE",[4],74.86
same,15-HEPE,[4],<LOD
same,15-HETE,[4],0.58
same,15-HETrE,[4],0.39
same,15-oxo-ETE,[4],0.15
same,16(17)-EpDPE,[4],<LOD
same,"16,17-DiHDPE",[4],0.63
same,17(18)-EpETE,[4],<LOD
same,"17,18-DiHETE",[4],3.51
same,17-HDoHE,[4],0.47
same,19(20)-EpDPE,[4],0.29
same,"19,20-DiHDPE",[4],4.63
same,20-HETE,[4],0.35
same,EKODE,[4],0.67
same,LTB4,[4],<LOD
same,PGD2,[4],0.04
same,PGE2,[4],0.0328
same,PGF2a,[4],0.19
same,Resolvin D1,[4],<LOD
same,Resolvin D2,[4],<LOD
same,TXB2,[4],0.22
same,"14,15-DiHETE",[4],0.2458
same,5(6)-EpETrE,[5],<LOD
same,"5,6-DiHETrE",[5],<LOD
same,5-HEPE,[5],0.03
same,5-HETE,[5],0.2075
same,5-oxo-ETE,[5],0.12
same,7(8)-EpDPE,[5],<LOD
same,"7,8-DiHDPE",[5],<LOD
same,8(9)-EpETE,[5],<LOD
